Test results taken from patent publication US7049311B1, “Pyrrolbenzodiazepines” (Spirogen Limited, priority 1998, dated 2006).
Read-outs that look alike come from different tables or passages of the source.

How the values were obtained:
NCI-H522 = assay: NCI in vitro cytotoxicity screen; assay type: cell-based; details: Homo sapiens, NCI-H522, 48 h, read-out: LC50
Description: (§1) The National Cancer Institute (NCI), Bethesda, Md., USA has available an in vitro cytotoxicity screen which consists of approximately 60 human tumour cell lines against which compounds are tested at a minimum of five concentrations each differing 10-fold. A 48 hour continuous exposure protocol is used, where cell viability or growth is estimated with an SRB protein assay.
(§2) The test compounds were evaluated against approximately 60 human tumour cell lines. The NCI screening procedures were described in detail by Monks and co-workers (Monks, A et al., Journal of the National Cancer Institute, 1991, 83, 757). Briefly, cell suspensions were diluted according to the particular cell type and the expected target cell density (5000-40,000 cells per well based on cell growth characteristics), and added by pipette (100 μL) into 96-well microtitre plates. The cells were allowed a preincubation period of 24 hours at 37° C. for stabilisation. Dilutions at twice the intended test concentration were added at time zero in 100 μL aliquots to the wells. The test compounds were evaluated at five 10-fold dilutions (10^−4, 10^−5, 10^−6, 10^−7 and 10^−[…]). The test compounds were incubated for 48 hours in 5% CO2 atmosphere and 100% humidity. The cells were then assayed using the sulphorhodamine B assay. A plate reader was used to read the optical densities and a microcomputer processed the readings into LC50 values, which is the dosage required to kill half of the cells.

RXF 393 = assay: NCI in vitro cytotoxicity screen; assay type: cell-based; details: Homo sapiens, RXF 393, 48 h, read-out: LC50
Description: as §1, §2

MDA-N = assay: NCI in vitro cytotoxicity screen; assay type: cell-based; details: Homo sapiens, 48 h, read-out: LC50
Description: as §1, §2

SK-MEL-2 = assay: NCI in vitro cytotoxicity screen; assay type: cell-based; details: Homo sapiens, SK-MEL-2, 48 h, read-out: LC50
Description: as §1, §2

MDA-MB-435 = assay: NCI in vitro cytotoxicity screen; assay type: cell-based; details: Homo sapiens, MDA-MB-435, 48 h, read-out: LC50
Description: as §1, §2

SK-MEL-28 = assay: NCI in vitro cytotoxicity screen; assay type: cell-based; details: Homo sapiens, SK-MEL-28, 48 h, read-out: LC50
Description: as §1, §2

M14 = assay: NCI in vitro cytotoxicity screen; assay type: cell-based; details: Homo sapiens, M14, 48 h, read-out: LC50
Description: as §1, §2

MALME-3M = assay: NCI in vitro cytotoxicity screen; assay type: cell-based; details: Homo sapiens, Malme-3M, 48 h, read-out: LC50
Description: as §1, §2

LOX IMVI = assay: NCI in vitro cytotoxicity screen; assay type: cell-based; details: Homo sapiens, 48 h, read-out: LC50
Description: as §1, §2

CH1 = assay: Ovarian carcinoma cytotoxicity assay; assay type: cell-based; details: Homo sapiens
Description: (§3) Compounds of the invention (and Anthramycin as a comparison) were evaluated for their cytotoxic activity in ovarian cell lines by Dr Lloyd R. Kelland's group at The Institute of Cancer Research, Sutton, UK. The five cell lines investigated were SKOV-3, A2780/A2780cisR and CH1/CH1cisR (cis R denotes that the cell line is resistant to cisplatin).
(§4) Single viable cells were seeded in growth medium (160 μL) in […] microtitre plates and allowed to attach overnight. […] After 96 hours, the medium was removed and the remaining cells fixed by exposure to 10% trichloroacetic acid on ice for 30 minutes. The wells were then washed 3-4 times with tap water, air dried overnight and treated with 100 μL of sulphorhodamine B (0.4%) dissolved in 1% acetic acid. Staining was allowed to continue for 10-15 minutes, then the wells were washed 3-4 times with 1% acetic acid, air dried and then added to Tris base (100 μL of 10 mM). Plates were then shaken and absorbance readings at 540 nm were determined using a plate reader. By using the Quattro-Pro software package, the IC50 values were calculated from plots of concentration versus percentage absorbance (compared with 8 untreated wells).

CH1cisR = assay: Ovarian carcinoma cytotoxicity assay; assay type: cell-based; details: Homo sapiens, CH1cisR; cisplatin-resistant, 96 hours, sulphorhodamine B; read-out: IC50 CH1cisR
Description: as §3, §4

SKOV-3 = assay: Ovarian carcinoma cytotoxicity assay; assay type: cell-based; details: Homo sapiens, SK-OV-3; 96 hours, sulphorhodamine B; read-out: IC50 Skov3
Description: as §3, §4

A2780 = assay: Ovarian carcinoma cytotoxicity assay; assay type: cell-based, human; details: Homo sapiens, A2780; 96 hours, sulphorhodamine B; read-out: IC50 A2780
Description: as §3, §4

A2780cisR = assay: Ovarian carcinoma cytotoxicity assay; assay type: cell-based, human; details: Homo sapiens, A2780cisR
Description: as §3, §4

SK-MEL-5 = assay: NCI in vitro cytotoxicity screen; assay type: cell-based; details: Homo sapiens, SK-MEL-5, 48 h, read-out: LC50
Description: as §1, §2

COLO 205 = assay: NCI in vitro cytotoxicity screen; assay type: cell-based; details: Homo sapiens, COLO 205, 48 h, read-out: LC50
Description: as §1, §2

UACC-257 = assay: NCI in vitro cytotoxicity screen; assay type: cell-based; details: Homo sapiens, UACC-257, 48 h, read-out: LC50
Description: as §1, §2

NCI-H23 = assay: NCI in vitro cytotoxicity screen; assay type: cell-based; details: Homo sapiens, NCI-H23, 48 h, read-out: LC50
Description: as §1, §2

UACC-62 = assay: NCI in vitro cytotoxicity screen; assay type: cell-based; details: Homo sapiens, UACC-62, 48 h, read-out: LC50
Description: as §1, §2

HCC-2998 = assay: NCI in vitro cytotoxicity screen; assay type: cell-based; details: Homo sapiens, HCC 2998, 48 h, read-out: LC50
Description: as §1, §2

[1] = test system: human tumour cells cultivated in hollow fibres implanted in mice; assay: NCI Hollow Fibre Assay; assay type: in vivo
Excerpt: The Biological testing Branch of the Developmental Therapeutics Program of the NCI has adopted a preliminary in vivo screening tool for assessing the potential anticancer activity of compounds identified by the large scale in vitro cell screen. For these assays, human tumour cells are cultivated in polyvinylidene (PVDF) hollow fibres, and a sample of each cell line is implanted into each of two physiologic compartments (intraperitoneal and subcutaneaous) in mice. Each test mouse received a total of 6 fibres (3 intraperitoneally and 3 subcutaneously) representing 3 distinct cancer cell lines. These mice are treated with potential antitumour compounds at each of 2 test doses by the intraperitoneal route using a QD×4 treatment schedule. Vehicle controls consist of 6 mice receiving the compound diluent only. The fibre cultures are collected on the day following the last day of treatment. To assess anticancer effects, the viable cell mass is determined for each of the cell lines using a formazyn dye (MTT) conversion assay. From this, the % T/C can be calculated using the average optical density of compound treated samples divided by the average optical; density of the vehicle controls. In addition, the net increase in cell mass can be determined for each sample, as a sample of fibre cultures are assessed for viable cell mass on the day of implantation into mice. Thus, the cytostatic and cytocidal capacities of the test compound can be assessed.
Generally, each compound is tested against a minimum of 12 human cancer cell lines. This represents a total of 4 experiments since each experiment contains 3 cell lines. The data are reported as % T/C for each of the 2 compound doses against each of the cell lines with separate values calculated for the intraperitoneal and subcutaneous samples.
Compounds are selected for further in vivo testing in standard subcutaneous xenograft models on the basis of several hollow fibre assay criteria. These include: (1) a % T/C of 50 or less in 10 of the 48 possible test combinations (12 cell lines×2 sites×2 Compound doses); (2) activity at a distance (intraperitoneal drug/subcutaneous culture) in a minimum of 4 of the 24 possible combinations; and/or (3) a net cell kill of 1 or more of the cell lines in either implant site. To simplify evaluation, a points system has been adopted which allows rapid evaluation of the activity of a given compound. For this, a value of 2 is assigned for each compound dose which results in a 50% or greater reduction in viable cell mass. The intraperitoneal and subcutaneous samples are scored separately so that criteria (1) and (2) can be evaluated. Compounds with a combined IP+SC score of 20, a SC score of 8 or a net cell kill of one or more cell lines are referred for xenograft testing. […] In addition to these criteria, other factors (e.g. unique structure, mechanism of action) may result in referral of a compound for xenograft testing without the compound meeting these criteria.

SF-539 = assay: NCI in vitro cytotoxicity screen; assay type: cell-based; details: Homo sapiens, SF-539, 48 h, read-out: LC50
Description: as §1, §2

NCI-H226 = assay: NCI in vitro cytotoxicity screen; assay type: cell-based; details: Homo sapiens, NCI-H226, 48 h, read-out: LC50
Description: as §1, §2

KM12 = assay: NCI in vitro cytotoxicity screen; assay type: cell-based; details: Homo sapiens
Description: as §1, §2

HS 578T = assay: NCI in vitro cytotoxicity screen; assay type: cell-based; details: Homo sapiens; HS 578T (Breast), 48 hour exposure, SRB assay; read-out: LC50 (the source's name)
Description: as §1, §2

SNB-75 = assay: NCI in vitro cytotoxicity screen; assay type: cell-based; details: Homo sapiens, SNB-75, 48 h, read-out: LC50
Description: as §1, §2

786-0 = assay: NCI in vitro cytotoxicity screen; assay type: cell-based; details: Homo sapiens, 786-0, 48 h, read-out: LC50
Description: as §1, §2

HCT-116 = assay: NCI in vitro cytotoxicity screen; assay type: cell-based; details: Homo sapiens, HCT-116, 48 h, read-out: LC50
Description: as §1, §2

NCI-H460 = assay: NCI in vitro cytotoxicity screen; assay type: cell-based; details: Homo sapiens, NCI-H460, 48 h, read-out: LC50
Description: as §1, §2

[2] = CH1, 96 hours, sulphorhodamine B, read-out: IC50 CH1
[3] = cisplatin-resistant, 96 hours, sulphorhodamine B, read-out: IC50 A2780cisR

Structure (SMILES): COc1ccc2c(c1)C(=O)N1CCC[C@H]1C=N2 (stereo in doubt) [UP2068 (96), 7-methoxy-1,2,3,11a-tetrahydro-5H-pyrrolo[2,1-c][1,4]benzodiazepin-5-one]
- CC50 (NCI-H522): 8.5 µM
- CC50 (RXF 393): 6.3 µM
- CC50 (MDA-N): 6.3 µM
- CC50 (SK-MEL-2): 8.1 µM
- CC50 (MDA-MB-435): 8.3 µM
- CC50 (SK-MEL-28): 9.6 µM
- CC50 (M14): 6.5 µM
- CC50 (MALME-3M): 8.3 µM
- CC50 (LOX IMVI): 9.7 µM
- IC50 (CH1; [2]): 520 nM
- IC50 (CH1cisR): 420 nM
- IC50 (SKOV-3): 760 nM
- IC50 (A2780): 470 nM
- IC50 (A2780cisR; [3]): 660 nM

Structure (SMILES): C=C1C[C@H]2C=Nc3cc(OCc4ccccc4)c(OC)cc3C(=O)N2C1 [UP2004 (70), (11aS)-8-Benzyloxy-7-methoxy-2-methylidene-1,2,3,11a-tetrahydro-5H-pyrrolo[2,1-c][1,4]benzodiazepin-5-one]
- CC50 (SK-MEL-5): 7.8 µM
- CC50 (COLO 205): 3.9 µM
- CC50 (UACC-257): 7.3 µM
- CC50 (NCI-H23): 7.6 µM
- CC50 (UACC-62): 5.3 µM
- CC50 (MDA-N): 9 µM
- CC50 (HCC-2998): 5.5 µM
- Total score ([1]; combined IP+SC score): 18
- IP score ([1]; intraperitoneal fibres, 2 points per dose giving 50% or greater reduction in viable cell mass): 8
- SC score ([1]; subcutaneous fibres, 2 points per dose giving 50% or greater reduction in viable cell mass): 10
- IC50 (CH1; [2]): 17 nM
- IC50 (CH1cisR): 82 nM
- IC50 (SKOV-3): 350 nM
- IC50 (A2780): 29 nM
- IC50 (A2780cisR; [3]): 200 nM

Structure (SMILES): C=C1C[C@H]2C=Nc3ccc(I)cc3C(=O)N2C1 [UP2023 (64), (11as)-7-Iodo-2-methylidene-1,2,3,11a-tetrahydro-5H-pyrrolo[2,1-c][1,4]benzodiazepin-5-one]
- CC50 (SF-539): 9.4 µM
- CC50 (SK-MEL-5): 6 µM
- CC50 (COLO 205): 5.8 µM
- CC50 (UACC-62): 7.2 µM
- CC50 (NCI-H522): 5.2 µM
- CC50 (RXF 393): 6.1 µM
- CC50 (MDA-N): 6.6 µM
- CC50 (SK-MEL-2): 7.4 µM
- CC50 (HCC-2998): 7 µM
- CC50 (MDA-MB-435): 7.6 µM
- CC50 (SK-MEL-28): 8.4 µM
- CC50 (NCI-H226): 9.1 µM
- CC50 (KM12; KM12, 48 h, read-out: LC50): 7.1 µM
- CC50 (MALME-3M): 7.8 µM
- IC50 (CH1; [2]): 370 nM
- IC50 (CH1cisR): 430 nM
- IC50 (SKOV-3): 16000 nM
- IC50 (A2780): 490 nM
- IC50 (A2780cisR; [3]): 1450 nM

Structure (SMILES): Nc1ccc2c(c1)N=C[C@@H]1CCCN1C2=O [UP2028 (151), (11aS)-8-amino-1,2,3,11a-tetrahydro-5H-pyrrolo[2,1-c][1,4]benzodiazepin-5-one]
- CC50 (HS 578T): 9.2 µM
- CC50 (COLO 205): 5 µM
- CC50 (SNB-75): 8.2 µM
- CC50 (NCI-H522): 0.8 µM
- CC50 (RXF 393): 0.7 µM
- CC50 (SK-MEL-2): 5.4 µM
- CC50 (MDA-MB-435): 7.2 µM
- CC50 (SK-MEL-28): 8.1 µM
- CC50 (KM12; KM12 (Colon), 48 hour exposure, SRB assay, read-out: LC50 (the source's name)): 8.8 µM
- CC50 (MALME-3M): 5.7 µM

Structure (SMILES): COc1cc2c(cc1OCc1ccccc1)N=C[C@@H]1CC(CCO)=CN1C2=O [UP2052 (33)]
- CC50 (786-0): 3000 nM
- CC50 (HCT-116): 1100 nM
- CC50 (NCI-H522): 3.1 µM
- CC50 (SK-MEL-2): 0.5 µM
- CC50 (HCC-2998): 0.8 µM
- CC50 (M14): 2.7 µM
- CC50 (NCI-H460): 3000 nM
- IC50 (CH1; CH1, 96 h, read-out: IC50 CH1, 96 hours, sulphorhodamine B): 90 nM
- IC50 (CH1cisR): 37 nM
- IC50 (SKOV-3): 105 nM
- IC50 (A2780): 70 nM
- IC50 (A2780cisR; 96 h, read-out: IC50 A2780cisR, cisplatin-resistant, 96 hours, sulphorhodamine B): 105 nM
